Reference: the supplement of paper PMC11061612

How the values were obtained:
[1] = test system: SW1573 (Lung Adenocarcinoma); test: combination Emax (second highest fraction inhibited in the dose matrix, 72 h); higher = more inhibition; extreme values may be limits of the assay
Procedure, shortened: (§1)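 Bliss excess equals the observed combination effect minus the expected value EA + EB − EA·EB, where EA and EB are the effects of each agent alone. Combination Emax is the second-highest inhibition within the matrix. Inhibition was scaled from CellTiter-Glo 2.0 luminescence, with 0 set by vehicle wells and 1 by blank wells, after 72 hours of two-drug dosing of cells plated in 1536-well plates.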

[2] = test system: OV-56 (Ovarian Carcinoma); test: as above
Procedure, shortened: as §1

[3] = test system: BPH-1 (Non-Cancerous); test: as above
Procedure, shortened: as §1

[4] = test system: HuH-7 (Hepatocellular Carcinoma); test: as above
Procedure, shortened: as §1

[5] = test system: HeLa (Cervical Carcinoma); test: as above
Procedure, shortened: as §1

[6] = test system: NCI-H2722 (Mesothelioma); test: as above
Procedure, shortened: as §1

[7] = test system: CAL-33 (Oral Cavity Carcinoma); test: as above
Procedure, shortened: as §1

[8] = test system: MHH-CALL-2 (B-Lymphoblastic Leukemia); test: as above
Procedure, shortened: as §1

[9] = test system: Detroit562 (Head and Neck Carcinoma); test: as above
Procedure, shortened: as §1

[10] = test system: FTC-133 (Thyroid Gland Carcinoma); test: as above
Procedure, shortened: as §1

[11] = test system: KMRC-20 (Kidney Carcinoma); test: as above
Procedure, shortened: as §1

[12] = test system: L-428 (Hodgkin's Lymphoma); test: as above
Procedure, shortened: as §1

[13] = test system: NCI-H1568 (Lung Adenocarcinoma); test: as above
Procedure, shortened: as §1

[14] = test system: NCI-H2052 (Mesothelioma); test: as above
Procedure, shortened: as §1

[15] = test system: NCI-H209 (Small Cell Lung Carcinoma); test: as above
Procedure, shortened: as §1

[16] = test system: NUGC-4 (Gastric Carcinoma); test: as above
Procedure, shortened: as §1

[17] = test system: OE21 (Esophageal Squamous Cell Carcinoma); test: as above
Procedure, shortened: as §1

[18] = test system: BE2-M17 (Neuroblastoma); test: as above
Procedure, shortened: as §1

[19] = test system: Hs-746T (Gastric Carcinoma); test: as above
Procedure, shortened: as §1

[20] = test system: BFTC-909 (Kidney Carcinoma); test: as above
Procedure, shortened: as §1

[21] = test system: LCLC-97TM1 (Non-Small Cell Lung Carcinoma); test: as above
Procedure, shortened: as §1

[22] = test system: ALL-PO (B-Lymphoblastic Leukemia); test: as above
Procedure, shortened: as §1

[23] = test system: SW1573 (Lung Adenocarcinoma); test: Bliss excess, mean over the matrix (fraction); higher = more synergy
Procedure, shortened: as §1

[24] = test system: OV-56 (Ovarian Carcinoma); test: as above
Procedure, shortened: as §1

[25] = test system: BPH-1 (Non-Cancerous); test: as above
Procedure, shortened: as §1

[26] = test system: HuH-7 (Hepatocellular Carcinoma); test: as above
Procedure, shortened: as §1

[27] = test system: HeLa (Cervical Carcinoma); test: as above
Procedure, shortened: as §1

[28] = test system: NCI-H2722 (Mesothelioma); test: as above
Procedure, shortened: as §1

[29] = test system: CAL-33 (Oral Cavity Carcinoma); test: as above
Procedure, shortened: as §1

[30] = test system: MHH-CALL-2 (B-Lymphoblastic Leukemia); test: as above
Procedure, shortened: as §1

[31] = test system: Detroit562 (Head and Neck Carcinoma); test: as above
Procedure, shortened: as §1

[32] = test system: FTC-133 (Thyroid Gland Carcinoma); test: as above
Procedure, shortened: as §1

[33] = test system: KMRC-20 (Kidney Carcinoma); test: as above
Procedure, shortened: as §1

[34] = test system: L-428 (Hodgkin's Lymphoma); test: as above
Procedure, shortened: as §1

[35] = test system: NCI-H1568 (Lung Adenocarcinoma); test: as above
Procedure, shortened: as §1

[36] = test system: NCI-H2052 (Mesothelioma); test: as above
Procedure, shortened: as §1

[37] = test system: NCI-H209 (Small Cell Lung Carcinoma); test: as above
Procedure, shortened: as §1

[38] = test system: NUGC-4 (Gastric Carcinoma); test: as above
Procedure, shortened: as §1

[39] = test system: OE21 (Esophageal Squamous Cell Carcinoma); test: as above
Procedure, shortened: as §1

[40] = test system: BE2-M17 (Neuroblastoma); test: as above
Procedure, shortened: as §1

[41] = test system: Hs-746T (Gastric Carcinoma); test: as above
Procedure, shortened: as §1

[42] = test system: BFTC-909 (Kidney Carcinoma); test: as above
Procedure, shortened: as §1

[43] = test system: LCLC-97TM1 (Non-Small Cell Lung Carcinoma); test: as above
Procedure, shortened: as §1

[44] = test system: ALL-PO (B-Lymphoblastic Leukemia); test: as above
Procedure, shortened: as §1

For `CC(=O)c1c(C)c2cnc(Nc3ccc(N4CCNCC4)cn3)nc2n(C2CCCC2)c1=O` [Palbociclib] + CN(CC[C@H](CSC1=CC=CC=C1)NC2=C(C=C(C=C2)S(=O)(=O)NC(=O)C3=CC=C(C=C3)N4CCC(CC4)[C@H](C5=CC=CC=C5C6=CC=C(C=C6)Cl)O)S(=O)(=O)C(F)(F)F)CCO [AZD4320] (first compound max 10 µM, 7x7, partner max 1 µM), the “combination Emax” value [1] was 0.255, the “combination Emax” value [2] was 0.289 and the “combination Emax” value [3] was 0.592. For the same compound, the “combination Emax” value [4] was 0.309, the “combination Emax” value [5] was 0.117 and the “combination Emax” value [6] was 0.283. The “combination Emax” value [7] was 0.364, the “combination Emax” value [8] was 0.436 and the “combination Emax” value [9] was 0.633. The “combination Emax” value [10] was 0.582, the “combination Emax” value [11] was 0.25 and the “combination Emax” value [12] was 0.866. For the same compound, the “combination Emax” value [13] was 0.515, the “combination Emax” value [14] was 0.296 and the “combination Emax” value [15] was 1. The “combination Emax” value [16] was 0.411, the “combination Emax” value [17] was 0.663 and the “combination Emax” value [18] was 0.756. The “combination Emax” value [19] was 0.408, the “combination Emax” value [20] was 0.55 and the “combination Emax” value [21] was 0.252. The “combination Emax” value [22] was 1, the Bliss excess [23] was -0.0486 and the Bliss excess [24] was -0.062. For the same compound, the Bliss excess [25] was -0.0818, the Bliss excess [26] was -0.0254 and the Bliss excess [27] was -0.0385. The Bliss excess [28] was -0.0497, the Bliss excess [29] was -0.0398 and the Bliss excess [30] was -0.0428. It also gave a Bliss excess [31] of 0.0001, a Bliss excess [32] of -0.0778 and a Bliss excess [33] of -0.0504. The Bliss excess [34] was -0.0128, the Bliss excess [35] was -0.0747 and the Bliss excess [36] was -0.0159. For the same compound, the Bliss excess [37] was 0.0266, the Bliss excess [38] was -0.0067 and the Bliss excess [39] was 0.0269. For the same compound, the Bliss excess [40] was 0.0726, the Bliss excess [41] was -0.0386 and the Bliss excess [42] was -0.0576. For the same compound, the Bliss excess [43] was -0.0326 and the Bliss excess [44] was 0.0126.
